# Test results reported in patent publication US12220466B2, “Pharmaceutical formulation” (Cutting Edge Technology, LLC, priority 2016, dated 2025).
# How the values were obtained:
# [1] = test system: spirochetes and motile rods in subgingival plaques; conditions: up to 12 weeks; cited from earlier work
# pocket epithelium [2] = conditions: monkey, in vivo; cited from earlier work
# [3] = test system: gram-negative anaerobes and spirochetes; conditions: cited from earlier work
# pocket epithelium [4] = conditions: cited from earlier work
# periodontitis = assay: Extensive in vivo administration of viscous tetracycline and 10% carbamide peroxide gel with mechanical debridement (Phase I-III)
# Experimental: Each of the subjects had up to 6 or more recorded pocket sites, which can have up to 32 teeth and other parameters of periodontal disease recordings as well as health recordings in their patient records.
# During Phase I treatments of periodontitis, a gel solution including 10% carbamide peroxide was applied directly to the periodontal pocket and pocket areas immediately followed by or preceded by 30-600 mg or more of pure topical tetracycline in powder or paste form, also applied directly to the pocket and pocket treatment areas together with the gel solution. The gel solution and the tetracycline were also applied to teeth directly. Tetracycline was added at intervals throughout the treatment. Treatment was performed on pockets from 3 mm up to 10 mm and more.
# When pocket tissue was swollen, the 10% carbamide peroxide penetrated the deep pocket under the gum. The 10% carbamide peroxide was in the form of a viscous gel and was applied to the wound site or pocket using a periodontal probe, for example, or using a curet or scaler. For example, one or two drops from a squeeze-bottle applicator was applied to the end of end of a curette tip or scaler or was applied with a periodontal pocket measuring probe. The peroxide gel was also applied under artificial teeth and implants, for example under restorative bridges such as pontic areas, whether with implants or natural teeth. […]
Compound,percentages of spirochetes and motile rods versus scaling and root planing alone [1],time to nearly complete healing without irreparable damage (pocket epithelium [2]) [days],time to reformation of epithelial lining (pocket epithelium [2]) [days],time to removal of most of the necrotic layer (pocket epithelium [2]) [h],duration of the decrease ([3]; in vivo) [days],"number of gram-negative anaerobes and spirochetes ([3]; patients under 18 years, no scaling and root planing)",time to restoration of epithelial lining (pocket epithelium [4]; in vivo) [days],"removal of pocket epithelium (histological) (pocket epithelium [4]; one minute application, neutralization, six curette strokes)",in office patient complaints (periodontitis; in vivo),allergic reaction with topical use (periodontitis; patient population)
OCl [sodium hypochlorite],no difference at any time between therapies,11,3,16,30 to 90,significant decrease,7,complete removal of pocket epithelium with normal healing,–,–
CN(C)[C@@H]1C(O)=C(C(N)=O)C(=O)[C@@]2(O)C(O)=C3C(=O)c4c(O)cccc4[C@@](C)(O)[C@H]3C[C@@H]12 [tetracycline],–,–,–,–,–,–,–,–,"to taste, not pain",No true allergic reaction
